# Source: patent US20090221576A1, “Pharmaceutical Use of 2-Hydroxy-3-[5-(Morpholin-4-Ylmethyl) Pyridin-2-YL]-1H-IN-Dole-5-Carbonitrile as a Free Base or Salts” (ASTRAZENECA AB GLOBAL INTELLECTUAL PROPERTY, priority 2006, published 2009)
# System: Han Wistar rats
# Experiment: Increased bone formation in rats, four-week oral gavage study, light microscopy of femur, femorotibial joint and sternum
# Type: in vivo, rat
# Description: Male and female Han Wistar rats were dosed by oral gavage, at dosages of 15, 55 or 100 μmol/kg/day for four weeks and compared to vehicle controls. Complete necropsies were performed and the tissues preserved in 10% formalin. The femur, femorotibial joint and sternum were decalcified, embedded in paraffin, sectioned at 5 μm thickness and stained with hematoxylin and eosin.
# [1] = rat, 100 μmol/kg for 4 weeks, vs vehicle-treated control rat (FIG. 1a)
structure (smiles),measurement,setting,value
"N#Cc1ccc2[nH]c(O)c(-c3ccc(CN4CCOCC4)cn3)c2c1.O=C(O)CC(O)(CC(=O)O)C(=O)O [Example 1, 2-Hydroxy-3-[5-(morpholin-4-ylmethyl)pyridin-2-yl]1H-indole-5-carbonitrile citrate salt]",bone formation as evaluated by light microscopy,"male and female Han Wistar rats, oral gavage, 100 μmol/kg dose level, four weeks, vs vehicle controls, femur, femorotibial joint, sternum, H&E","increased bone formation in the form of thickened trabeculae, thickened cortical bone, periosteal hyperostosis and increased number of osteoblasts"
"N#Cc1ccc2[nH]c(O)c(-c3ccc(CN4CCOCC4)cn3)c2c1 [compound (I), 2-hydroxy-3-[5-(morpholin-4-ylmethyl)pyridin-2-yl]1H-indole-5-carbonitrile]","formation of osteoid in the femur (epiphysis), FIG. 1b",[1],marked increase in formation of osteoid
same,"number of osteoblasts in the femur (epiphysis), FIG. 1b",[1],increased number of osteoblasts
